Results on four molecules are retold here after publication PMC8730602 (2022).

In assay [1] the test system is thiolated cortisol aptamer (DNA, aptamer) CGACCGGTCTGGGGACCCTGTCTGGGTGTGTGGGTAGTAGGTCG
As to the kind of experiment: aptamer field-effect transistor. The conditions noted are these: artificial sweat (Table S5), immobilised aptamer; for binding: negligible response at physiological concentrations versus 10 nM cortisol.

The test system of assay [2] is cortisol aptamer, fluorescein at 5' end (DNA, aptamer) CTCTCGGGACGACCGGTCTGGGGACCCTGTCTGGGTGTGTGGGTAGTAGGTCGTCCC
Description: competitive structure-switching fluorescence (FAM/dabcyl). The settings on record: 154 mM NaCl, 1.058 mM KH2PO4, 2 mM MgCl2; PBS pH 7.3-7.5; dabcyl quencher strand GGTCGTCCCGAGAG displaced, aptamer:quencher 1:5.

The test system of assay [3] is thiolated serotonin aptamer (DNA, aptamer) CGACTGGTAGGCAGATAGGGGAAGCTGATTCGATGCGTGGGTCG
As to the kind of experiment: aptamer field-effect transistor. The settings on record: artificial sweat (Table S5); immobilised aptamer; response over 10 fM to 100 µM.

Consider `CC(=O)[C@H]1CC[C@H]2[C@@H]3CCC4=CC(=O)CC[C@]4(C)[C@H]3CC[C@]12C`, for which the binding result in assay [1] was “no”.
Take `C[C@]12CCC(=O)C=C1CC[C@@H]1[C@@H]2[C@@H](O)C[C@@]2(C)[C@H]1CC[C@]2(O)C(=O)CO`: the Kd in assay [2] was 500 nM; in assay [1] (on-FET, gate-voltage sweep, apparent), ~ 30 pM.
As for `C[C@]12CC[C@H]3[C@@H](CCC4=CC(=O)CC[C@@]43C)[C@@H]1CC[C@@H]2O`, the binding entry in assay [1] is “no”.
On to `NCCc1c[nH]c2ccc(O)cc12`, for which the binding result in assay [1] is reported as “no”; in assay [3] it was “yes”.
